Laboratory results as given in patent US6239125A, “Azetidinone derivatives for the treatment of HCMV infections” (Boehringer Ingelheim (Canada) Ltd., priority 1998, dated 2001).
Where a name gives a salt, the structure may show the parent alone. Read-outs that look alike come from different tables or passages of the source. Non-standard residues stand in square brackets, D forms with d. Residues, ends and D or L forms follow the SMILES beside them. Tyr(3-NO2) = N[C@@H](Cc1ccc(O)c([N+](=O)[O-])c1)C(=O)O; 2Abz = Nc1ccccc1C(=O)O

Key:
HCMV No protease [1] = target: T1, HCMV No protease (Human cytomegalovirus, UniProt P16753); test: HCMV No Protease Assay (fluorogenic substrate, IC50); assay type: biochemical; settings: HCMV No protease 100 nM, substrate 5 μM, 2.5 h at 30°, pH 8; Table 1 and Table 2
T1 sequence (P16753 1-256): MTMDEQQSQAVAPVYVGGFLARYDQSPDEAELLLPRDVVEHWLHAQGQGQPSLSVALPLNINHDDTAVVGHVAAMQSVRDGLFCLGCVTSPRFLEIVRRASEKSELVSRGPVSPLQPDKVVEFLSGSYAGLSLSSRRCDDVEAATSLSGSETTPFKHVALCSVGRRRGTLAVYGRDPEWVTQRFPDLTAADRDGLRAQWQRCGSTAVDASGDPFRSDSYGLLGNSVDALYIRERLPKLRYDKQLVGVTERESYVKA
Description: This particular assay determines the ability of a test compound to inhibit the activity (IC50) of HCMV protease. More specifically, in the assay described herein, the inhibitory activity of the test compound is evaluated on the basis of its ability to interfere with the HCMV No protease cleavage of a fluorogenic peptide substrate which in turn is based on the maturation cleavage site of the enzyme.
1. HCMV No Protease Assay
Material & Methods: Fluorescence measurements were recorded on a Perkin-Elmer LS-50B spectrofluorimeter equipped with a plate reader accessory. UV measurements were recorded on a Thermomax® microplate reader from Molecular Devices Corporation, Menlo Park, Calif., USA.
The fluorescence increase upon cleavage of the Ala-Ser amide bond was monitored using excitation λ=312 nm (slit 2.5 nm) and emission λ=415 nm ([…]). A protocol adaptable to a 96-well plate format was designed for the determination of IC50 values of inhibitors.
No quenching was required before fluorescence measurement since the total scanning time by the plate reader accessory was brief relative to the duration of the reaction. The aqueous incubation buffer contained 50 mM tris(hydroxymethyl)aminomethane-HCl pH 8, 0.5M Na2 SO4, 50 mM NaCl, 0.1 mM EDTA, 1 mM tris(2-carboxyethyl)phosphine.HCl, 3% v/v DMSO and 0.05% w/v casein. The final concentrations of HCMV No protease (expressed in terms of total monomer concentration) and substrate were 100 nM and 5 μM respectively. IC50 values were obtained through fitting of the inhibition curve to a competitive inhibition model using SAS NLIN procedure. The mode of inhibition was determined by measurements of the initial rates (in cuvettes) at various substrate concentrations in the buffer as described above.

[2] = system: HCMV (strain AD169, ATCC VR-538); test: Plaque Reduction Assay (PRA), HCMV-infected Hs-68 cells; assay type: cell-based, human cytomegalovirus (HCMV)
Description: B. Plaque Reduction Assay (PRA): Hs-68 cells (ATCC # CRL 1635) were seeded in 12-well plates at 83,000 cells/well in 1 mL of DMEM medium (Gibco Canada Inc.) supplemented with 10% fetal bovine serum (FBS, Gibco Canada Inc.). The plates were incubated for 3 days at 37° to allow the cells to reach 80-90% confluency prior to the assay.
The medium was removed from the cells by aspiration. The cells were then infected with approximately 50 PFU of HCMV (strain AD169, ATCC VR-538) in DMEM medium supplemented with 5% inactivated FBS (assay medium). (DMEM medium is commercially available and has been described by R. Dulbecco et al., Virology 1959, 8, 396.) The virus was allowed to adsorb to cells for 2 h at 37°. Following viral adsorption, the medium was removed from the wells by aspiration. The cells were then incubated with or without 1 mL of appropriate concentrations of test reagent in assay medium. Occasionally, test compounds were added 24 h post-infection. After 4 days of incubation at 37°, the medium was exchanged with fresh medium containing test compound and 4 days later the cells were fixed with 1% aqueous formaldehyde and stained with a 2% violet solution in 20% ethanol in water. Microscopic plaques were counted using a stereomicroscope. Drug effects were calculated as a percent reduction in the number of plaques in the presence of each drug concentration compared to the number observed in the absence of drug. Ganciclovir was used as a positive control in all experiments.

[3] = Cytotoxic effects, tetrazolium salt (MTT) metabolic assay; assay type: cell-based; settings: cytotoxicity, Table 1 and Table 2, read-out: TC50 (the source's name)
Description: Cytotoxic effects noted as TC50 in the following tables were determined according to the tetrazolium salt (MTT) metabolic assay, F. Denizot and F. Lang, J. Immun. Meth., 1986, 89, 271.

HCMV No protease [4] = target: T1, HCMV No protease; test: HCMV No Protease Assay (fluorogenic substrate, IC50); assay type: biochemical; settings: fluorogenic substrate cleaved by HCMV No protease
[5] = Human betaherpesvirus 5, Hs68, plaque reduction, Hs-68 cells, HCMV strain AD169, Table 1 and Table 2, read-out: EC50

C[C@@H](NC(=O)N1C(=O)C[C@H]1[S+]([O-])c1ccccc1)c1ccccc1 (stereo partly drawn) [Entry 107]
IC50 (HCMV No protease [1]): 9 µM

C[C@@H](NC(=O)N1C(=O)C[C@@H]1SCc1ccncc1)c1ccccc1 [Entry 109]
IC50 (HCMV No protease [1]): 2.1 µM
EC50 [2, 5]: 65 µM
CC50 [3]: > 250 µM

CN(C(=O)CC(CO[C@@H]1CC(=O)N1C(=O)NCc1ccccc1)NC(=O)CC(C)(C)C)C(C)(C)C (stereo partly drawn) [Entry 205]
IC50 (HCMV No protease [1]): 5 µM
EC50 [2, 5]: > 250 µM
CC50 [3]: > 250 µM

CC(C)C[C@@H](CO[C@@H]1CC(=O)N1C(=O)NCc1ccccc1)NC(=O)[C@@H](NC(=O)OC(C)(C)C)C(C)(C)C [Entry 202]
IC50 (HCMV No protease [1]): 1.3 µM
EC50 ([2]; Human betaherpesvirus 5, AD169, Hs68): 64 µM
CC50 [3]: > 52 µM

CC[C@@H](NC(=O)N1C(=O)C[C@@H]1SCc1ccccn1)c1ccccc1 [Entry 114, 4(S)-{(2-pyridinylmethyl)thio}azetidin-2-one-1-carboxylic acid (1(R)-phenylpropyl)amide hydrochloride]
IC50 (HCMV No protease [1]): 1.2 µM
EC50 [2, 5]: 80 µM
CC50 [3]: > 200 µM

CC(C)C[C@@H](CO[C@@H]1CC(=O)N1C(=O)NCc1ccccc1)NC(=O)OC(C)(C)C [Entry 201]
IC50 (HCMV No protease [1]): 44 µM

CC(C)C[C@@H](CO[C@@H]1CC(=O)N1C(=O)NCc1ccccc1)NC(=O)[C@@H](NC(=O)CC(C)(C)C)C(C)(C)C [Entry 204]
IC50 (HCMV No protease [1]): 0.16 µM

C[C@@H](NC(=O)N1C(=O)C[C@@H]1SC[C@H](CCS(C)(=O)=O)NC(=O)[C@@H](NC(=O)OC(C)(C)C)C(C)(C)C)c1ccccc1 [Entry 105]
IC50 (HCMV No protease [1]): 0.2 µM
EC50 [2, 5]: 110 µM
CC50 [3]: > 250 µM

C[C@@H](NC(=O)N1C(=O)C[C@@H]1SCc1cccnc1)c1ccccc1 [Entry 110]
IC50 (HCMV No protease [1]): 2 µM
EC50 [2, 5]: 96 µM
CC50 [3]: > 200 µM

CC[C@@H](NC(=O)N1C(=O)C[C@@H]1SC[C@H](CC(C)C)NC(=O)[C@@H](NC(=O)CC(C)(C)C)C(C)(C)C)c1ccccc1 [Entry 115]
IC50 (HCMV No protease [1]): < 0.06 µM
EC50 [2, 5]: > 250 µM
CC50 [3]: > 250 µM

C[C@@H](NC(=O)N1C(=O)C[C@@H]1SCC(=O)c1ccccc1)c1ccccc1 [Entry 112]
IC50 (HCMV No protease [1]): 1 µM
EC50 [2, 5]: > 37 µM
CC50 [3]: > 37 µM

O=C1C[C@H](SCc2ccccn2)N1C(=O)N[C@H](CO)c1ccccc1 [Entry 116]
IC50 (HCMV No protease [1]): 3.6 µM

COC(=O)[C@@H](C)O[C@@H]1CC(=O)N1C(=O)N[C@H](C)c1ccccc1 [Entry 209]
IC50 (HCMV No protease [1]): 21.5 µM

C[C@@H](NC(=O)N1C(=O)C[C@@H]1Oc1ccc(Cl)cc1)c1ccccc1 [Entry 207]
IC50 (HCMV No protease [1]): 0.8 µM
EC50 [2, 5]: 250 µM
CC50 [3]: > 250 µM

C[C@@H](NC(=O)N1C(=O)C[C@H]1Oc1ccc(Cl)cc1)c1ccccc1 [Entry 206]
IC50 (HCMV No protease [1]): 1.6 µM

CC(C)C[C@H](NC(=O)[C@H](CCCNC(=N)N)NC(=O)[C@H](CO)NC(=O)[C@H](CO)NC(=O)[C@H](C)NC(=O)[C@H](CC(N)=O)NC(=O)[C@@H](NC(=O)[C@@H](NC(=O)c1ccccc1N)C(C)C)C(C)C)C(=O)N[C@@H](Cc1ccc(O)c([N+](=O)[O-])c1)C(=O)N[C@@H](CCCNC(=N)N)C(=O)O (H-[2Abz]VVNASSRL[Tyr(3-NO2)]R-OH)
Kcat /KM (HCMV No protease [4]): 260 M⁻¹ s⁻¹

CC(C)C[C@@H](CS[C@H]1CC(=O)N1C(=O)NCc1ccccc1)NC(=O)[C@@H](NC(=O)OC(C)(C)C)C(C)(C)C [Entry 101]
IC50 (HCMV No protease [1]): 0.4 µM
EC50 [2, 5]: > 11 µM
CC50 [3]: > 11 µM

C[C@@H](NC(=O)N1C(=O)C[C@H]1SC[C@H](CCS(C)(=O)=O)NC(=O)[C@@H](NC(=O)OC(C)(C)C)C(C)(C)C)c1ccccc1 [Entry 106]
IC50 (HCMV No protease [1]): 0.62 µM
EC50 [2, 5]: 230 µM
CC50 [3]: > 250 µM

CC(C)C[C@@H](CO[C@H]1CC(=O)N1C(=O)N[C@H](C)c1ccccc1)NC(=O)[C@@H](NC(=O)OC(C)(C)C)C(C)(C)C [Entry 203]
IC50 (HCMV No protease [1]): 0.32 µM
EC50 [2, 5]: > 49 µM
CC50 [3]: > 49 µM

C[C@@H](NC(=O)N1C(=O)C[C@@H]1SCc1ccccc1)c1ccccc1 [Entry 103]
IC50 (HCMV No protease [1]): 12.4 µM
EC50 [2, 5]: > 5 µM
CC50 [3]: > 5 µM

C[C@@H](NC(=O)N1C(=O)C[C@@H]1Sc1ccccc1)c1ccccc1 [Entry 102]
EC50 [2, 5]: 40 µM
CC50 [3]: > 100 µM

C[C@@H](NC(=O)N1C(=O)C[C@@H]1[S+]([O-])c1ccccc1)c1ccccc1 (stereo partly drawn) [Entry 108]
IC50 (HCMV No protease [1]): 4 µM

C[C@@H](NC(=O)N1C(=O)C[C@@H]1SCCc1ccccc1)c1ccccc1 [Entry 104]
IC50 (HCMV No protease [1]): 6.5 µM
EC50 [2, 5]: > 4 µM
CC50 [3]: > 4 µM

C[C@@H](NC(=O)N1C(=O)C[C@@H]1OCCNC(=O)c1ccc(NC(=O)CC(C)(C)C)cc1)c1ccccc1 [Entry 208]
IC50 (HCMV No protease [1]): 21 µM

COC(=O)[C@H](C)O[C@H]1CC(=O)N1C(=O)N[C@H](C)c1ccccc1 [Entry 210]
IC50 (HCMV No protease [1]): 3.8 µM

C[C@@H](NC(=O)N1C(=O)C[C@@H]1SCc1ccccn1)c1ccccc1 [Entry 111]
IC50 (HCMV No protease [1]): 2.5 µM
EC50 [2, 5]: 60 µM
CC50 [3]: 180 µM
